Experiments:
Assay in all cases: Kinase Selectivity Assay (CEREP, HTRF)
Assay type in all cases: biochemical
p38d kinase = molecular target: T1, p38d kinase (Homo sapiens, UniProt O15264); settings: read-out: % Inhibition at 10 μM Concentration, p38delta
T1 sequence (O15264 1-365): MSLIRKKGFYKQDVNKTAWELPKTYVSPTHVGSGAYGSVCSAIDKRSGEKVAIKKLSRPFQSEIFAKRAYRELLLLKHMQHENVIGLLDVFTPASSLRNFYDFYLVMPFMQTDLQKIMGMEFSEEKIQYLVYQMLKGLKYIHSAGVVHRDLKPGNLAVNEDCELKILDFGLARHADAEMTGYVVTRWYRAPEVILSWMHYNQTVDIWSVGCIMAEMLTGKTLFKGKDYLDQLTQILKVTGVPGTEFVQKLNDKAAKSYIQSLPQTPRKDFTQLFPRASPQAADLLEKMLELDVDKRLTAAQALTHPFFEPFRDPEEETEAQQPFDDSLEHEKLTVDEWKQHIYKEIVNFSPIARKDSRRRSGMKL
Description: (§1) kinase, ROCK2, RSK2, Src kinase, Syk, and TRKA. The % Inhibition was determined

CDK2 (cycE) = molecular target: T2, CDK2 (cycE) (Homo sapiens, UniProt P24941); settings: read-out: % Inhibition at 10 μM Concentration, CDK2 (cycE)
T2 construct: CEREP, France (ran the assays)
Description: as §1

FLT-3 kinase = molecular target: T3, FLT-3 kinase (Homo sapiens, UniProt P36888); settings: read-out: % Inhibition at 10 μM Concentration, FLT-3
T3 sequence (P36888 27-993): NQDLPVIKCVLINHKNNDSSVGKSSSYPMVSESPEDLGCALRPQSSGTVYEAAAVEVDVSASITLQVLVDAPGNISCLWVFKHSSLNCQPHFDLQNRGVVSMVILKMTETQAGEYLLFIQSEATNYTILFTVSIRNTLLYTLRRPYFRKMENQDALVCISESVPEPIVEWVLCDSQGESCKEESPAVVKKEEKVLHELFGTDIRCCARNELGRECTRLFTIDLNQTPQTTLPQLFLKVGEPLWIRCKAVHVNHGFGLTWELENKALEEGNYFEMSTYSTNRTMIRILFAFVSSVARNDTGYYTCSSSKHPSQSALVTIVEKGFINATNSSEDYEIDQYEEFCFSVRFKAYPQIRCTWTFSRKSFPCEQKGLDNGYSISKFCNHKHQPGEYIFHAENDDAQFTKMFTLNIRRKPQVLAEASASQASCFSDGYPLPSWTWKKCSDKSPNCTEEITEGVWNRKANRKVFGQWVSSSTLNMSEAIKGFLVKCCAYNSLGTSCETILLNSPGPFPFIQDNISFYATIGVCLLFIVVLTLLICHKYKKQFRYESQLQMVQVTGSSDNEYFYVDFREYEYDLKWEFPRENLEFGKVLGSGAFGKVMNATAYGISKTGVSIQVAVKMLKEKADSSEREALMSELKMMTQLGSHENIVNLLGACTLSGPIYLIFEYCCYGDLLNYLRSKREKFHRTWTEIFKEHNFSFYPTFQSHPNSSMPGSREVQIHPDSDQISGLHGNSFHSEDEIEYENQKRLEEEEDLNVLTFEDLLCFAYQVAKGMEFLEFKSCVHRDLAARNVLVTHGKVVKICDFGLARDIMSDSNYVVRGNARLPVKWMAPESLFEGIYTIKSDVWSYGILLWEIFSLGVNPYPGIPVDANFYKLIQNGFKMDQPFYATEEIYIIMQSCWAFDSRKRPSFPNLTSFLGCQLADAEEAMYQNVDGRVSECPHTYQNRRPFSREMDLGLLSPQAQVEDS
Description: as §1

Lyn = Lyn (Homo sapiens, UniProt P07948); settings: read-out: % Inhibition at 10 μM Concentration, Lyn
Description: as §1

ROCK2 = ROCK2 (Homo sapiens, UniProt O75116); settings: read-out: % Inhibition at 10 μM Concentration, ROCK2
Description: as §1

CHK2 = molecular target: T4, CHK2 (Homo sapiens, UniProt O96017); settings: read-out: % Inhibition at 10 μM Concentration, CHK2
T4 construct: CEREP, France (ran the assays)
Description: as §1

Src kinase = Src kinase (Homo sapiens, UniProt P12931); settings: read-out: % Inhibition at 10 μM Concentration, Src
Description: as §1

Brk = molecular target: T5, Brk (Homo sapiens, UniProt Q13882); settings: read-out: % Inhibition at 10 μM Concentration, Brk
T5 construct: CEREP, France (ran the assays)
Description: as §1

PDK1 = molecular target: T6, PDK1 (Homo sapiens, UniProt O15530); settings: read-out: % Inhibition at 10 μM Concentration, PDK1
T6 sequence (O15530 1-556): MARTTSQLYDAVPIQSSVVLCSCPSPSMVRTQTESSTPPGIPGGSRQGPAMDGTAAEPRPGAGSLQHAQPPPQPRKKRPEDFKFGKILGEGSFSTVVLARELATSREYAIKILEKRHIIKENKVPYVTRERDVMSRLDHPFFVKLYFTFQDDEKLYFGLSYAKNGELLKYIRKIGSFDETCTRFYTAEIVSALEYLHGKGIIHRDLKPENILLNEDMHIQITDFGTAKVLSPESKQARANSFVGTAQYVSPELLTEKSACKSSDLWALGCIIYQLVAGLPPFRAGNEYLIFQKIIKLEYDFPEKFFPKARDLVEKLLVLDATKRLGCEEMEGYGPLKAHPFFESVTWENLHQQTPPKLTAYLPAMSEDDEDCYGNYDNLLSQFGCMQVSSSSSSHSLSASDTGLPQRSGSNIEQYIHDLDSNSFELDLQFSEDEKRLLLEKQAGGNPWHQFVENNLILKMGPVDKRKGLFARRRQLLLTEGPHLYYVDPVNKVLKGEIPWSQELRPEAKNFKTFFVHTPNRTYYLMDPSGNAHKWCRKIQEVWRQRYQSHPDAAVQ
Description: as §1

FGFR4 kinase = molecular target: T7, FGFR4 kinase (Homo sapiens, UniProt P22455); settings: read-out: % Inhibition at 10 μM Concentration, FGFR4
T7 construct: CEREP, France (ran the assays)
Description: as §1

p38a kinase = p38a kinase (Homo sapiens, UniProt Q16539); settings: read-out: % Inhibition at 10 μM Concentration, p38alpha
Description: as §1

KDR kinase (VEGFR2) = KDR kinase (VEGFR2) (Homo sapiens, UniProt P35968); settings: read-out: % Inhibition at 10 μM Concentration, KDR (VEGFR2)
Description: as §1

KDR kinase (VEGFR2), sequence (P35968 20-1356): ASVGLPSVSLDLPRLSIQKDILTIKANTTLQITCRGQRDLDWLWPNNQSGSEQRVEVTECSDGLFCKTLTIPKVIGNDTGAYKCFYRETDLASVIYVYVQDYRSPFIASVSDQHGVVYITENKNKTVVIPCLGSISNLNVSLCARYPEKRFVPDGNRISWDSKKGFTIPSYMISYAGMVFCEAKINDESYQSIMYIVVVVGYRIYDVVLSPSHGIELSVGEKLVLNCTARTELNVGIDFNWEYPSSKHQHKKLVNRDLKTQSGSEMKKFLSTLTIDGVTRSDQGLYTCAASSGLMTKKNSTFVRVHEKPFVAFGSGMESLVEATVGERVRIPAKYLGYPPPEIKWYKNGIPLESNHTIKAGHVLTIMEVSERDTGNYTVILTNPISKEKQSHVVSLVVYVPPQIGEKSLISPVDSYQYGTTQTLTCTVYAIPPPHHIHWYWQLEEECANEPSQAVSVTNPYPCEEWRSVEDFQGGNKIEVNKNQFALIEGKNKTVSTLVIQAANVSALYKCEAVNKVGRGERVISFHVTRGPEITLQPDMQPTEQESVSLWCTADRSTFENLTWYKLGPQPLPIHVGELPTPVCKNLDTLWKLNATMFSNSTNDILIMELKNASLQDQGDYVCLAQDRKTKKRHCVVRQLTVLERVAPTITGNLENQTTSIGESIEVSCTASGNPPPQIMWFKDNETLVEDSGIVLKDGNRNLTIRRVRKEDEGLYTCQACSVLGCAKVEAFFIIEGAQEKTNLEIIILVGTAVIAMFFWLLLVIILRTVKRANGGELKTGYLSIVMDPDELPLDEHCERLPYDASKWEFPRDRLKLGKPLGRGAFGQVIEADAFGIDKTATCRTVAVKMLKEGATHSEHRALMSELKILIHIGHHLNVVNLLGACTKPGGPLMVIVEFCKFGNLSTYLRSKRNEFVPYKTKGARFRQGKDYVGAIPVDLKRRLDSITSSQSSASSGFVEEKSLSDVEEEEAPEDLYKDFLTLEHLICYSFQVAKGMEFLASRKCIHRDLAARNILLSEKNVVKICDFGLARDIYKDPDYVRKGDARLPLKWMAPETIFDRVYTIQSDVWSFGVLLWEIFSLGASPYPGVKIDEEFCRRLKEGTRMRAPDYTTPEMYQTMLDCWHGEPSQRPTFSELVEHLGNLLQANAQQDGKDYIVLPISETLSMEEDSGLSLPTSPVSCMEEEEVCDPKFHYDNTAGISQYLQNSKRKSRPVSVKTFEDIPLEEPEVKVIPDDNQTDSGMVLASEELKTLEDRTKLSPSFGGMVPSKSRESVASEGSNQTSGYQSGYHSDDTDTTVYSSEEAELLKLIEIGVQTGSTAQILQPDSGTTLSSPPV
T7 sequence (P22455 22-802): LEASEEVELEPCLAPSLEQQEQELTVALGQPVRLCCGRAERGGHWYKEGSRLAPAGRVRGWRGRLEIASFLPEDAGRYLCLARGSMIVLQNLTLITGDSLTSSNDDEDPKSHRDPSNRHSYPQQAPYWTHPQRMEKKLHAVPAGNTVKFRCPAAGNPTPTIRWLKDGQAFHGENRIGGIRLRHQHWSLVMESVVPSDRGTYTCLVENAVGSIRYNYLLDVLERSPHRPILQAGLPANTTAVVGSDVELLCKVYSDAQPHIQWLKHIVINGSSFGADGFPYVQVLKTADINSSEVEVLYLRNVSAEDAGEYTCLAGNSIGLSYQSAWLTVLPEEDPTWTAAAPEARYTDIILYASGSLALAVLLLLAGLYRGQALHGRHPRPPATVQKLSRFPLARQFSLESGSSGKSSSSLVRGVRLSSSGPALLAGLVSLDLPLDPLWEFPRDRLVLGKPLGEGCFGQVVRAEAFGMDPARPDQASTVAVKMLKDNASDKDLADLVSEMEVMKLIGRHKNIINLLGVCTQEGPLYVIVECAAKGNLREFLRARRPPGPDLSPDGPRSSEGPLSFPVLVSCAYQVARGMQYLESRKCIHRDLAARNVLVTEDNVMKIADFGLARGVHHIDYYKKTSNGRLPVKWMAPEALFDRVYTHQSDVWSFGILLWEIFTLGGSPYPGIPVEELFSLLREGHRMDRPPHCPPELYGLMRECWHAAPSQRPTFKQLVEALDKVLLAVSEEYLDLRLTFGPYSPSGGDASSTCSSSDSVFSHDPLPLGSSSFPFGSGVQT
T4 sequence (O96017 whole entry): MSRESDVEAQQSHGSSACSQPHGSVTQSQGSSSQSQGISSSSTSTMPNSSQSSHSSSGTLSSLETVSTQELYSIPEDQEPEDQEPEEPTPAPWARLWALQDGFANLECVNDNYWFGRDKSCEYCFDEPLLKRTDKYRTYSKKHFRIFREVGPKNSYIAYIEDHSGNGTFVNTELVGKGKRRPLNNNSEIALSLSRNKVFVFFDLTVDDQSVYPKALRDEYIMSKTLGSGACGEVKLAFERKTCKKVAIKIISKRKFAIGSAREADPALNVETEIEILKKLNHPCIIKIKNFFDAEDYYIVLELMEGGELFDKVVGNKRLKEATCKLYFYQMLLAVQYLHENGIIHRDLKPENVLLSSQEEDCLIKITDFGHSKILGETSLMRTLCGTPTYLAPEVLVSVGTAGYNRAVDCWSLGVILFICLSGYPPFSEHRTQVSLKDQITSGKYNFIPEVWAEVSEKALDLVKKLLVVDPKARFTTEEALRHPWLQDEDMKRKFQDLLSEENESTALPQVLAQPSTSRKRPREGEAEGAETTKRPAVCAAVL
Src kinase, sequence (P12931 whole entry): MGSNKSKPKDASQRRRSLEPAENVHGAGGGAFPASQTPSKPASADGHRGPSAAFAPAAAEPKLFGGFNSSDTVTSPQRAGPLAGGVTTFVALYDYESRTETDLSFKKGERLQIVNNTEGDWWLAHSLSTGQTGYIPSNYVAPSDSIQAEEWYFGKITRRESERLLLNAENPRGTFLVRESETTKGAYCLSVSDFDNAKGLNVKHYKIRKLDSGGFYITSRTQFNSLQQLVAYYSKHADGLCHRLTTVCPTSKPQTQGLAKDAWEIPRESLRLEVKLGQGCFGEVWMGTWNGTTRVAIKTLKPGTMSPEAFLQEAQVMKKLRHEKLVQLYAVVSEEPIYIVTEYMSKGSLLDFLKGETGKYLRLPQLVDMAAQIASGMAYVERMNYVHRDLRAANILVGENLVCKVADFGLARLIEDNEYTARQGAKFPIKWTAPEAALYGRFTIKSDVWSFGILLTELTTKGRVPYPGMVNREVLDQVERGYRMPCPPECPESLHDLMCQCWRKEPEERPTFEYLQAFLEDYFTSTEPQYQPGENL
ROCK2, sequence (O75116 whole entry): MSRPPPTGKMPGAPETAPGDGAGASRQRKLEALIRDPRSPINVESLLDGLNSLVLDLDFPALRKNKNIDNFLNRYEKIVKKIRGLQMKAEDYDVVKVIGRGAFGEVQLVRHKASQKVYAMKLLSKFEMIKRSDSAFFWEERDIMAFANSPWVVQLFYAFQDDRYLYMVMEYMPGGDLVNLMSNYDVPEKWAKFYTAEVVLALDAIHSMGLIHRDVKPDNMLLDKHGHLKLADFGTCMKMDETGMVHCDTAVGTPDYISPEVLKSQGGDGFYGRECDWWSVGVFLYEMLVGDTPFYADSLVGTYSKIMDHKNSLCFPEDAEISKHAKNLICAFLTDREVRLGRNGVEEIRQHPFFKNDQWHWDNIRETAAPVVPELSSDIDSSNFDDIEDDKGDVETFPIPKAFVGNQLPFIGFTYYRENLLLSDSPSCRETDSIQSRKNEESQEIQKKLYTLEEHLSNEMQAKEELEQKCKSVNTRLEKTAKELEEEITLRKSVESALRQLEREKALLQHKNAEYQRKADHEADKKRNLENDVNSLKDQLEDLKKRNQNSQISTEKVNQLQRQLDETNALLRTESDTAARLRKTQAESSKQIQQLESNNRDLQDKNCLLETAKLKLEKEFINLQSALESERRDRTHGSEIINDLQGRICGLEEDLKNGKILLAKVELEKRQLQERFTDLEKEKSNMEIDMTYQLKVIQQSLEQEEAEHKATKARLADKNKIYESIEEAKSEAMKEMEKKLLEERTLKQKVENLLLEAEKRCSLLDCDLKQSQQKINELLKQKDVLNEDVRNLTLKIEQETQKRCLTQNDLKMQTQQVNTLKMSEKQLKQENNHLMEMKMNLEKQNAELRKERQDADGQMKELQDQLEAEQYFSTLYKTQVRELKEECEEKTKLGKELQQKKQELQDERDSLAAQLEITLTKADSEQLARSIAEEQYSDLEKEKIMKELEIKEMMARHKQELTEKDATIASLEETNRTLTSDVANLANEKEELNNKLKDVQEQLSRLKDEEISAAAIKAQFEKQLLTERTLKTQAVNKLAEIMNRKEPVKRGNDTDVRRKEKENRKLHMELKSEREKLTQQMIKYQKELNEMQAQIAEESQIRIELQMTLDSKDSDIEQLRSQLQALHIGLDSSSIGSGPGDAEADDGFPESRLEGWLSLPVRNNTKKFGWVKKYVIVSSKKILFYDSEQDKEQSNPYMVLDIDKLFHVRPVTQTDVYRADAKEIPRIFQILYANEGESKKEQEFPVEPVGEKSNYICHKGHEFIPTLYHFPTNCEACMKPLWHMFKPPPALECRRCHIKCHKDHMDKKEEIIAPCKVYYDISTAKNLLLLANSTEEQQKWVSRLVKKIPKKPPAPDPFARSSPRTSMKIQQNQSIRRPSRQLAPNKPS
Lyn, sequence (P07948 whole entry): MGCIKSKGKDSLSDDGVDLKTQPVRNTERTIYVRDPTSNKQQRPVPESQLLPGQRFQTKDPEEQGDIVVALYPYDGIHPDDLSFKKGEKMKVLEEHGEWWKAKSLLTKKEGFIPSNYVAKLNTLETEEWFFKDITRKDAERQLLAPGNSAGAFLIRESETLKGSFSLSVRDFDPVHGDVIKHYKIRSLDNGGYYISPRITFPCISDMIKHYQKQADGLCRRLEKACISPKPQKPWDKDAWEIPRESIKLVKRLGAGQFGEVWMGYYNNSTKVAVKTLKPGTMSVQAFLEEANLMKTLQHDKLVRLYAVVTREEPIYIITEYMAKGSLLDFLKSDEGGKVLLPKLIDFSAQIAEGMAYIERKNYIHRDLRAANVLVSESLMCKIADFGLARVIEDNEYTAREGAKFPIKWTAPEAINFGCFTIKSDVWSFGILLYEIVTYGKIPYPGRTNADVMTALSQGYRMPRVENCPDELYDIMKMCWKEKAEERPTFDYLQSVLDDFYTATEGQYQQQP

Row | Compound | inhibition at 10 µM (p38d kinase) [%] | inhibition at 10 µM (CDK2 (cycE)) [%] | inhibition at 10 µM (FLT-3 kinase) [%] | inhibition at 10 µM (Lyn) [%] | inhibition at 10 µM (ROCK2) [%] | inhibition at 10 µM (CHK2) [%] | inhibition at 10 µM (Src kinase) [%] | inhibition at 10 µM (Brk) [%] | inhibition at 10 µM (PDK1) [%] | inhibition at 10 µM (FGFR4 kinase) [%] | inhibition at 10 µM (p38a kinase) [%] | inhibition at 10 µM (KDR kinase (VEGFR2)) [%]
1 | O=C1Nc2ccccc2/C1=C\c1ccc2c(/C=C/c3ccccc3Cl)n[nH]c2c1 [Example A60, (E)-3-((3-((E)-2-chlorostyryl)-1H-indazol-6-yl)methylene)indolin-2-one] | 3 | 5 | 10 | 88 | -1 | 6 | 0 | 4 | 1 | 6 | 1 | 8
2 | O=C1Nc2ccccc2C1=Cc1ccc2c(/C=C/c3ccccn3)n[nH]c2c1 (mixture of isomers) [Example A41, (E and Z)-3-((3-((E)-2-(pyridin-2-yl)vinyl)-1H-indazol-6-yl)methylene)indolin-2-one] | -5 | 8 | 100 | 98 | -3 | 22 | 59 | 40 | 4 | 38 | 16 | 100
3 | COc1ccc2c(c1)C(=Cc1ccc3c(-c4ccc(N5CCN(C)CC5)nc4)n[nH]c3c1)C(=O)N2 (mixture of isomers) [Example A97, (E and Z)-5-methoxy-3-((3-(6-(4-methylpiperazin-1-yl)pyridin-3-yl)-1H-indazol-6-yl)methylene)indolin-2-one] | 13 | 3 | 100 | 85 | 22 | 4 | 24 | 7 | 73 | 30 | 11 | 93
4 | O=C1Nc2ccccc2/C1=C\c1ccc2[nH]nnc2c1 [Example A1, (E)-3-((1H-benzo[d][1,2,3]triazol-5-yl)methylene)indolin-2-one] | 0 | 10 | 93 | 14 | 1 | 14 | 10 | 5 | -3 | 18 | -8 | 59
5 | O=C1Nc2ccccc2/C1=C\c1ccc2cn[nH]c2c1 [Example A5, (E)-3-((1H-indazol-6-yl)methylene)indolin-2-one] | -8 | 16 | 76 | -5 | 3 | 2 | -9 | -6 | 2 | -4 | 18 | 29
